Source: US9097673B2, “Processes and kits for determining multi-drug resistance of cells” (ENZO LIFE SCIENCES, INC., priority 2010, dated 2015)

Key:
[1] = tested on: CHO K1, A549 and HeLa cells; experiment: MTT test of dye toxicity; type: cell-based; settings: 5 μM Fluo-8 AM, 3 h at 37° C.
Procedure: Three model cell lines (CHO K1, A549 and HeLa cells) were seeded in 96 well plates (5×10^3 cells/well) and 24 h later were treated with the working concentrations of dyes (0.5 μM of Calcein AM, 5 μM of Fluo-8™ AM, 4 μM of Rhod-4™ AM) used in the MDR assay for 3 h at 37° C. Then reagents were removed and a standard MTT test was performed as described elsewhere [Mosmann T., J Immunol Methods 65(1-2):55-63 (1983)]. Viability was calculated as a ratio of OD595 for treated cells to the OD595 of untreated control cells (FIG. 4). […] Additionally, the concentration of Rhod-4™ AM can be decreased further for particularly sensitive cell lines.

Hep G2 cells = experiment: Dye uptake flow cytometry MDR assay; type: cell-based, human; design: key: Kolmogorov-Smirnov D statistic comparing fluorescence distributions; settings: HepG2, dye uptake
Procedure: (§1) Cells were grown on tissue culture dishes and on the day of assay were trypsinized and washed twice with warm (37° C.) phosphate-buffered saline (PBS). Post-wash, the cells were re-suspended in warm phenol red indicator-free medium at a density of 1×10^6/ml. For each detection set, sixteen tubes (5 samples in triplicates plus non-stained control for background fluorescence) in numbered tubes each containing 5×10^5/cells (0.5 ml) were prepared. […] After incubation for 5 min at 37° C., 0.25 ml of warm medium with Fluo-8™ AM probe (5 μM final concentration) or Rhod-4™ AM probe (2 μM final concentration) was added to each tube excluding non-stained control that receives plain medium and cells were incubated for 30 min at 37° C. and analyzed immediately by flow cytometry. In the second set of the tubes, the reaction was stopped by rapid centrifugation (1 min) at relatively low speed (200×g). After wash with ice-cold PBS and discarding the supernatant, cells were re-suspended in 0.5 ml of ice-cold medium and kept on ice until flow cytometry analysis. The third set of cells simply was spun down (1 min, 200×g) to remove the excess of the probe, resuspended in ice-cold medium and kept on ice until flow cytometry analysis.
(§2) Flow cytometry experiments were performed using a FACS Calibur benchtop flow cytometer (BD Biosciences) equipped with a blue (488 nm) laser, and the signals were registered in the FITC (530/30 filter), PE (585/42 filter) and PerCP (670 LP filter) channels. Fluo-8™ dye fluorescence was measured in the FL1 channel, and Rhod-4™ dye fluorescence—in the FL2 channel. Flow cytometry data were analyzed by comparison of median fluorescence or using Kolmogorov-Smirnov statistics [Young, J Histochem Cytochem 25:935-941 (1977)] or by calculating MAF values (MDR Activity Factor) using the following formula: MAF=100*((MFIinh−MFI0)/MFIinh), where MFIinh and MFI0 are mean fluorescence intensity values measured in the presence and absence of inhibitor [Hollo et al., Biochem Piophys Acta. 1191:384-388 (1994)].
(§3) Both human ileocecal colorectal carcinoma cell line HCT-8 (reported to over-express P-gp and, to a lesser extent, MRP [Hunter et al., Br J Cancer. 64:437-444 (1991); Collington et al., Biochem Pharmacol 44:417-424 (1992)] and hepatocellular carcinoma Hep G2 (reported to over-express MRP [Roelofsen et al., Gastroenterology 112:511-521 (1997), Cantz et al., Am J Physiol Gastrointest Liver Physiol. 278:G522-G531 (2000)] were obtained from ATCC. HCT-8 cells were routinely cultured in RPMI-1640 Medium with 2 mM L-glutamine, 10 mM HEPES, 1 mM sodium piruvate, 4.5 g/L glucose, 1.5 g/L sodium bicarbonate (ATCC), supplemented with 10% horse serum (ATCC) and 100 U/ml penicillin, 100 ug/ml streptomycin (Sigma-Aldrich, St. Louis, Mo.). Hep G2 cells were routinely cultured in Eagle's Minimum Essential Medium with low glucose (ATCC), supplemented with 10% heat inactivated fetal bovine serum (ATCC) and 100 U/ml penicillin, 100 ug/ml streptomycin (Sigma-Aldrich, St. Louis, Mo.). Cell cultures were maintained in a humidified incubator at 37° C., with 5% CO2 atmosphere. Stock solutions of the probes and inhibitors were prepared, as described in Examples 2 and 3. Cells were grown in tissue culture dishes and on the day of assay were treated according to a dye uptake protocol and analyzed by flow cytometry, as described in Example 3.

HCT-8 cells = experiment: Dye uptake flow cytometry MDR assay; type: cell-based, human; design: key: Kolmogorov-Smirnov D statistic comparing fluorescence distributions; settings: HCT-8, dye uptake
Procedure: as §1, §2, §3

Question: CC(=O)OCOC(=O)CN(CC(=O)OCOC(C)=O)c1ccccc1OCCOc1cc(-c2c3ccc(=O)cc-3oc3cc(OCOC(C)=O)ccc23)ccc1N(CC(=O)OCOC(C)=O)CC(=O)OCOC(C)=O [Fluo-8 ™ AM] was tested. Which “Toxicity to the cells (MTT viability)” value [1] did it give?
Answer: not toxic

Question: What about the “D-value, CyclosporinA” value (Hep G2 cells) of the same molecule?
Answer: 0.28

Question: And the “D-value, MK-571” value (Hep G2 cells)?
Answer: 0.34

Question: What about the “D-value, Novobiocin” value (Hep G2 cells) of the same molecule?
Answer: 0.13

Question: And the “D-value, Verapamil” value (Hep G2 cells)?
Answer: 0

Question: And the “D-value, CyclosporinA” value (HCT-8 cells)?
Answer: 0.68

Question: What about the “D-value, MK-571” value (HCT-8 cells) of the same molecule?
Answer: 0.34

Question: What about the “D-value, Novobiocin” value (HCT-8 cells) of the same molecule?
Answer: 0.22

Question: And the “D-value, Verapamil” value (HCT-8 cells)?
Answer: 0.71
